Laboratory results taken from patent US20220289719A1, “HETEROCYCLIC COMPOUNDS AS MNK INHIBITORS” (NANJING INNOCARE PHARMA TECH CO., LTD., priority 2017, published 2022).
Where a name gives a salt, the structure may show the parent alone.

Experiments:
[1] = system: MV-4-11 cells; experiment: MV-4-11 cell proliferation inhibition assay (CellTiter-Glo luminescent cell viability); type: cell-based; settings: Homo sapiens, MV4-11, 120 hours, CTG readout, 8 concentration points
Procedure: MV-4-11 Cell Proliferation Inhibition Assay:
The effect of the compounds of the present invention on the proliferation of MV-4-11 cells was evaluated using a luminescent cell viability assay.
The experimental methods are summarized as follows:
The cell proliferation status of MV-4-11 was detected using the CellTilter-Glo (CTG) assay kit: the luminescence signal generated in the assay is proportional to the number of viable cells in the culture medium by using a unique, stable luciferase to detect viable cell metabolism indicator ATP.
CellTilter-Glo reagent (Promega, G7572) consists of CellTilter-Glo lyophilized powder and ellTilter-Glo buffer, which can be used to dissolve the lyophilized powder into the buffer.
MV-4-11 cells (ATCC #CRL-9591, purchased from Nanjing Kezhen, item number CBP60522) were cultured in IMDM complete medium (Thermofisher, 12440053) containing 10% FBS (GBICO, 10099-141) and 100 units/ml streptomycin mixture (Thermofisher, 15140122). when the cells coverage rearched 80-90% in the culture container, dilute and plant with 0.25% trypsin (including EDTA) (Thermofisher, 25200056) in a white 384-well plate (Thermofisher, 164610), 400 cells per well (36 μl […] complete medium), then 384-well plates were incubated overnight (18-20 hours) in a 37° C., % CO2 incubator.
Compounds were solubilized to 10 mM in 100% DMSO, then sequentially diluted in 4-fold with DMSO to a minimum concentration of […], and each concentration was diluted 50-fold with FBS-free IMDM medium. If the compound IC50 value is very low, the initial concentration of the compound can be lowered. 4 μl of the diluted IMDM compound was added to each well and mixed gently by centrifugation. The GI50 (50% Growth Inhibition) of the compounds was determined in this experiment, including the T0 group before the cell proliferation (including the T0 positive and T0 negative control groups), and the T5 group after 120 hours of cell proliferation (containing the T5 positive and T5 negative control groups).). T0 represents the number of cells before cell proliferation before compound addition, including positive control: the group with the addition of cells and 0.2% DMSO was used as the positive control. The group with medium alone was used as the negative control, T0 group before the addition of compound will be used for CTG test. […] Gently shake for 5 minutes to ensure sufficient cell lysis, leave for 10 minutes to stabilize the luminescence signal, and then read the luminescence signal with EnVision (Perkin Elmer).
The inhibition of MV-4-11 cell proliferation of the compounds was calculated by the following formula: […]
The IC50 value of the compound was calculated from the 8 concentration points by XLfit (ID Business Solutions Ltd., UK) software using the following formula: […]

[2] = target: T1, Human recombinant full-length MNK1 protein (Homo sapiens, UniProt Q9BUB5); experiment: MNK1 inhibitory activity assay (ADP-Glo in vitro kinase assay); type: biochemical; settings: 10 concentration points
T1 construct: Human recombinant full-length MNK1 protein; purchased Thermo PR9138A
T1 sequence (Q9BUB5 whole entry): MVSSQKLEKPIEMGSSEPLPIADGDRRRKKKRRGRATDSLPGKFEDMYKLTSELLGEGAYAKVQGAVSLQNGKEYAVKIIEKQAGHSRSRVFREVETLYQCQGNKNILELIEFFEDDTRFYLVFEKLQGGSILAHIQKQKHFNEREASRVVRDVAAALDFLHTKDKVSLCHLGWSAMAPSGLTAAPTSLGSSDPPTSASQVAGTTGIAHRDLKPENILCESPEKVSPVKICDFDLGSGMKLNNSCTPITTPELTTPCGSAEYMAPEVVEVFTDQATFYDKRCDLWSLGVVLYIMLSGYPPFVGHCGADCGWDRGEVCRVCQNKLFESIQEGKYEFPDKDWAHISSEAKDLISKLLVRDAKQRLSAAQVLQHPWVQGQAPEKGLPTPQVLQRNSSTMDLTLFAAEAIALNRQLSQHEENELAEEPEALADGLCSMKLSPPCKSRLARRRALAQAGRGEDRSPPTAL
Procedure: MNK1 Inhibitory Activity Assay: Evaluation of the effects of compounds of the invention on […] (MNK1) activity using in vitro kinase assays. The experimental methods are summarized as follows: The in vitro activity of MNK1 was determined by measuring the level of ADP produced in the kinase reaction using the ADP-Glo Kinase Assay Kit. The reaction buffer consisted of the following components: 50 mM HEPES, pH 7.5, 10 mM MgCl2, 1 mM EGTA, 0.01% Brij35. Human recombinant full-length MNK1 protein (Thermo, Cat. No. PR9138A) was diluted with a reaction buffer to a 3.13 ng/uL kinase solution. The substrate reaction solution consisted of a substrate diluted to 0.75 mg/ml in reaction buffer ([…], available from […] Domestic Company), 2250 uM ATP, the ADP-Glo reagent and kinase assay solution from Promega kit (Promega, V9102). […] If the compound IC50 value is very low, the initial concentration of the compound can be lowered. To a 384-well assay plate (Thermo, Cat. No. 264706) were added 1 uL of compound solution and 2 uL of MNK1 kinase solution. The mixture was mixed well and incubated for 30 minutes at room temperature; then 2 uL of substrate reaction solution was added, the reaction mixture was incubated for 120 minutes at room temperature. The reaction was terminated after an equal volume of 5uLADP-Glo solution was added, and the remaining ATP was completely consumed. After mixing for 60 minutes at room temperature, 10 ul of the kinase assay solution was added, and the mixture was uniformly mixed, and allowed to stand at room temperature for 40 minutes in the dark. The detection solution converts ADP into new ATP through coupled luciferase/luciferin, and ATP is converted into optical signal by Ultr-GloTM luciferase, which can be detected by Envision. The intensity of the light signal is proportional correlated with the amount of ADP produced in the kinase reaction, therefore, the activity of MNK1 kinase can be determined. In this experiment, the group without protein was used as a negative control (100% inhibition). The group with protein but without compounds was used as a positive control (0% inhibition).

| Compound | IC50 [1] | IC50 [2] |
| --- | --- | --- |
| COc1cc2[nH]ncc2cc1Nc1cc(NC(=O)C2CC2)ncn1 [Compound 4, 5-(6-Cyclopropionamidopyrimidin-4-ylamino)-6-methoxy-1H-indazole] | 301 nM | 1.45 nM |
| COc1c(Nc2cc(NC(=O)C3CC3)ncn2)ccc2c1CNC2=O [Compound 67, 5-((6-Cyclopropanamidopyrimidin-4-yl)amino)-4-methoxyisodihydroindole-1-one] | 483 nM | 2.7 nM |
| COc1c(Nc2cc(Nc3ccccn3)ncn2)ccc2c1CNC2=O [Compound 68, 5-((6-(Pyridin-2-ylamino)pyrimidin-4-yl)amino)-4-methoxyisodihydroindol-1-one] | 295 nM | 8.2 nM |
| COc1c(Nc2cc(Nc3cnccn3)ncn2)ccc2c1CNC2=O [Compound 84, 5-((6-(Pyrazin-2-ylamino)pyrimidin-4-yl)amino)-4-methoxyisodihydroindol-1-one formate] | 278 nM | 5 nM |
| COc1c(Nc2cc(Nc3cc(Cl)ccn3)ncn2)ccc2c1CNC2=O [Compound 87, 5-((6-((4-Chloropyridin-2-yl)amino)pyrimidin-4-yl)amino)-4-methoxyisoindolin-1-one] |  | 19.1 nM |
